This data set in a line: Solubility experiment in cyclohexanone. The data set is classed as physicochemical. The note with it: dissolved in cyclohexanone (CHON) under normal temperature/pressure; whether 0.1 wt % or more was dissolved. The method, then:
In order to confirm the solubility in the solvent used in the solution process of the compounds prepared in the Preparation Examples and the comparative compounds, each of them was dissolved in the solvent cyclohexanone (CHON) under normal temperature/pressure conditions, and it was confirmed whether 0.1 wt % or more was dissolved.
As for `Cc1cccc(N(c2ccc3c4c5ccc6c(c5ccc4n(-c4ccccc4)c3c2)c2ccc(N(c3ccc(C(C)(C)C)cc3)c3ccc4c5c7ccc8c(c7ccc5n(-c5ccccc5)c4c3)c3ccc(N(c4cccc(C)c4)c4cccc5c4oc4ccccc45)cc3n8-c3ccccc3)cc2n6-c2ccccc2)c2cccc3c2oc2ccccc23)c1` [Compound 1], the “Solvent CHON (solubility)” value is “◯ (0.1 wt. % or more soluble)”. In the case of `Cc1cccc(N(c2ccc3c4c5ccc6c(c5ccc4n(-c4ccccc4)c3c2)c2ccc(N(c3cccc(C)c3)c3cccc4c3oc3ccccc34)cc2n6-c2ccccc2)c2ccc3c4c5ccc6c(c5ccc4n(-c4ccccc4)c3c2)c2ccc(N(c3cccc(C)c3)c3cccc4c3oc3ccccc34)cc2n6-c2ccccc2)c1` [Compound 2], the “Solvent CHON (solubility)” value is “◯ (0.1 wt. % or more soluble)”.

Take `Cc1cccc(N(c2ccc3c4c5ccc6c(c5ccc4n(-c4ccccc4)c3c2)c2ccc(N(c3ccc4c5c7ccc8c(c7ccc5n(-c5ccccc5)c4c3)c3ccc(N(c4cccc(C)c4)c4cccc5c4oc4ccccc45)cc3n8-c3ccccc3)c3cccc4c3oc3ccccc34)cc2n6-c2ccccc2)c2cccc3c2oc2ccccc23)c1` [Compound 3]: the “Solvent CHON (solubility)” value was “◯ (0.1 wt. % or more soluble)”.

As for `Cc1cccc(N(c2ccc3c4c5ccc6c(c5ccc4n(-c4ccccc4)c3c2)c2ccc(N(c3ccccc3)c3ccc4c5c7ccc8c(c7ccc5n(-c5ccccc5)c4c3)c3ccc(N(c4cccc(C)c4)c4cccc5c4oc4ccccc45)cc3n8-c3ccccc3)cc2n6-c2ccccc2)c2cccc3c2oc2ccccc23)c1` [Compound 4], the “Solvent CHON (solubility)” value is reported as “◯ (0.1 wt. % or more soluble)”.

As for `Cc1cccc(N(c2ccc3c4c5ccc6c(c5ccc4n(-c4ccccc4)c3c2)c2ccc(N(c3ccc(-c4cc5ccccc5o4)cc3)c3ccc4c5c7ccc8c(c7ccc5n(-c5ccccc5)c4c3)c3ccc(N(c4cccc(C)c4)c4cccc5c4oc4ccccc45)cc3n8-c3ccccc3)cc2n6-c2ccccc2)c2cccc3c2oc2ccccc23)c1` [Compound 5], the “Solvent CHON (solubility)” value is “◯ (0.1 wt. % or more soluble)”. Turning to `CC(C)(C)c1ccc(N(c2ccc(C(C)(C)C)cc2)c2ccc3c4c5ccc6c(c5ccc4n(-c4ccccc4)c3c2)c2ccc(N(c3ccc(C(C)(C)C)cc3)c3ccc4c5c7ccc8c(c7ccc5n(-c5ccccc5)c4c3)c3ccc(N(c4ccc(C(C)(C)C)cc4)c4ccc(C(C)(C)C)cc4)cc3n8-c3ccccc3)cc2n6-c2ccccc2)cc1` [Compound 6], the “Solvent CHON (solubility)” value is on record as “◯ (0.1 wt. % or more soluble)”. Turning to `CC(C)(C)c1ccc(N(c2ccc(C(C)(C)C)cc2)c2ccc3c4c5ccc6c(c5ccc4n(-c4ccccc4)c3c2)c2ccc(N(c3ccc4c5c7ccc8c(c7ccc5n(-c5ccccc5)c4c3)c3ccc(N(c4ccc(C(C)(C)C)cc4)c4ccc(C(C)(C)C)cc4)cc3n8-c3ccccc3)c3cccc4c3oc3ccccc34)cc2n6-c2ccccc2)cc1` [Compound 7], the “Solvent CHON (solubility)” value was “◯ (0.1 wt. % or more soluble)”. As to `CC(C)(C)c1ccc(N(c2ccc(C(C)(C)C)cc2)c2ccc3c4c5ccc6c(c5ccc4n(-c4ccccc4)c3c2)c2ccc(N(c3ccc(-c4cc5ccccc5o4)cc3)c3ccc4c5c7ccc8c(c7ccc5n(-c5ccccc5)c4c3)c3ccc(N(c4ccc(C(C)(C)C)cc4)c4ccc(C(C)(C)C)cc4)cc3n8-c3ccccc3)cc2n6-c2ccccc2)cc1` [Compound 8], the “Solvent CHON (solubility)” value is on record as “◯ (0.1 wt. % or more soluble)”. Take `CC(C)(C)c1ccc(N(c2ccc3c4c5ccc6c(c5ccc4n(-c4ccccc4)c3c2)c2ccc(N(c3ccc(-c4ccc5c(c4)c4ccccc4n5-c4ccccc4)cc3)c3ccc4ccccc4c3)cc2n6-c2ccccc2)c2ccc3c4c5ccc6c(c5ccc4n(-c4ccccc4)c3c2)c2ccc(N(c3ccc(-c4ccc5c(c4)c4ccccc4n5-c4ccccc4)cc3)c3ccc4ccccc4c3)cc2n6-c2ccccc2)cc1` [Compound 9]: the “Solvent CHON (solubility)” value is listed as “◯ (0.1 wt. % or more soluble)”.

For the compound `CC(C)(C)c1ccc(N(c2ccc3c4c5ccc6c(c5ccc4n(-c4ccccc4)c3c2)c2ccc(N(c3ccccc3)c3ccc4cc(-c5cc7ccccc7o5)ccc4c3)cc2n6-c2ccccc2)c2ccc3c4c5ccc6c(c5ccc4n(-c4ccccc4)c3c2)c2ccc(N(c3ccccc3)c3ccc4cc(-c5cc7ccccc7o5)ccc4c3)cc2n6-c2ccccc2)cc1` [Compound 10], the “Solvent CHON (solubility)” value is listed as “◯ (0.1 wt. % or more soluble)”. In the case of `CC(C)(C)c1ccc(N(c2ccc3c4c5ccc6c(c5ccc4n(-c4ccccc4)c3c2)c2ccc(N(c3ccccc3)c3ccccc3)cc2n6-c2ccccc2)c2ccc3c4c5ccc6c(c5ccc4n(-c4ccccc4)c3c2)c2ccc(N(c3ccccc3)c3ccccc3)cc2n6-c2ccccc2)cc1` [Compound 11], the “Solvent CHON (solubility)” value is reported as “◯ (0.1 wt. % or more soluble)”. With `c1ccc(N(c2ccccc2)c2ccc3c4c5ccc6c(c5ccc4n(-c4ccccc4)c3c2)c2ccc(N(c3ccc4cc(-c5cc7ccccc7o5)ccc4c3)c3ccc4c5c7ccc8c(c7ccc5n(-c5ccccc5)c4c3)c3ccc(N(c4ccccc4)c4ccccc4)cc3n8-c3ccccc3)cc2n6-c2ccccc2)cc1` [Compound 12], the “Solvent CHON (solubility)” value is “◯ (0.1 wt. % or more soluble)”. For the compound `CC(C)(C)c1ccc(N(c2ccc3c4c5ccc6c(c5ccc4n(-c4ccccc4)c3c2)c2ccc(N(c3ccccc3)c3ccc4ccccc4c3)cc2n6-c2ccccc2)c2ccc3c4c5ccc6c(c5ccc4n(-c4ccccc4)c3c2)c2ccc(N(c3ccccc3)c3ccc4ccccc4c3)cc2n6-c2ccccc2)cc1` [Compound 13], the “Solvent CHON (solubility)” value is given as “◯ (0.1 wt. % or more soluble)”. With `Cc1cccc(N(c2ccc3c4c5ccc6c(c5ccc4n(-c4ccccc4)c3c2)c2ccc(-c3ccc(-c4ccc5c7c8ccc9c(c8ccc7n(-c7ccccc7)c5c4)c4ccc(N(c5cccc(C)c5)c5cccc7c5oc5ccccc57)cc4n9-c4ccccc4)cc3)cc2n6-c2ccccc2)c2cccc3c2oc2ccccc23)c1` [Compound 14], the “Solvent CHON (solubility)” value is “◯ (0.1 wt. % or more soluble)”. As to `Cc1cccc(N(c2ccc3c4c5ccc6c(c5ccc4n(-c4ccccc4)c3c2)c2ccc(-c3cccc(-c4ccc5c7c8ccc9c(c8ccc7n(-c7ccccc7)c5c4)c4ccc(N(c5cccc(C)c5)c5cccc7c5oc5ccccc57)cc4n9-c4ccccc4)c3)cc2n6-c2ccccc2)c2cccc3c2oc2ccccc23)c1` [Compound 15], the “Solvent CHON (solubility)” value was “◯ (0.1 wt. % or more soluble)”. Next, `Cc1cccc(N(c2ccc3c4c5ccc6c(c5ccc4n(-c4ccccc4)c3c2)c2ccc(-c3ccc4c5c7ccc8c(c7ccc5n(-c5ccccc5)c4c3)c3ccc(N(c4cccc(C)c4)c4cccc5c4oc4ccccc45)cc3n8-c3ccccc3)cc2n6-c2ccccc2)c2cccc3c2oc2ccccc23)c1` [Compound 16]: “◯ (0.1 wt. % or more soluble)”. Consider `Cc1cccc(N(c2ccc3c4c5ccc6c(c5ccc4n(-c4ccccc4)c3c2)c2ccc(Oc3ccc4c5c7ccc8c(c7ccc5n(-c5ccccc5)c4c3)c3ccc(N(c4cccc(C)c4)c4cccc5c4oc4ccccc45)cc3n8-c3ccccc3)cc2n6-c2ccccc2)c2cccc3c2oc2ccccc23)c1` [Compound 17], for which the “Solvent CHON (solubility)” value is given as “◯ (0.1 wt. % or more soluble)”.

In the case of `Cc1cccc(N(c2ccc3c(c2)c2c4ccc5c(c4ccc2n3-c2ccccc2)c2cc(N(c3ccc(C(C)(C)C)cc3)c3ccc4c(c3)c3c6ccc7c(c6ccc3n4-c3ccccc3)c3cc(N(c4cccc(C)c4)c4cccc6c4oc4ccccc46)ccc3n7-c3ccccc3)ccc2n5-c2ccccc2)c2cccc3c2oc2ccccc23)c1` [Compound 19], the “Solvent CHON (solubility)” value was “◯ (0.1 wt. % or more soluble)”. As to `Cc1cccc(N(c2cccc3c2oc2ccccc23)c2cccc3c2c2c4ccc5c(c4ccc2n3-c2ccccc2)c2c(N(c3ccc(C(C)(C)C)cc3)c3cccc4c3c3c6ccc7c(c6ccc3n4-c3ccccc3)c3c(N(c4cccc(C)c4)c4cccc6c4oc4ccccc46)cccc3n7-c3ccccc3)cccc2n5-c2ccccc2)c1` [Compound 21], the “Solvent CHON (solubility)” value is given as “◯ (0.1 wt. % or more soluble)”. For `CC1(C)c2cc(-c3cc4ccccc4o3)ccc2-c2ccc(N(c3ccccc3)c3ccc4c5c6ccc7c(c6ccc5n(-c5ccccc5)c4c3)c3ccc(N(c4ccccc4)c4ccc5c(c4)C(C)(C)c4cc(-c6cc8ccccc8o6)ccc4-5)cc3n7-c3ccccc3)cc21` [Compound J, reference compound], the “Solvent CHON (solubility)” value was “X (0.1 wt. % or more insoluble)”.

The record behind these values is patent US12557545B2, “Compound and organic light emitting device comprising the same” (LG Chem, Ltd., priority 2020, dated 2026).
